Data published in ChEMBL document CHEMBL1157827, “The synthesis and biological evaluation of quinolyl-piperazinyl piperidines as potent serotonin 5-HT1A antagonists” (J Med Chem, 2010).
Values belong to the compound of their own block, whether it stands above or below them. Active and inactive are the calls of the source. The rule behind the calls is not given here.

Key:
[1] = target: T1, 5-hydroxytryptamine receptor 1A (Homo sapiens, UniProt P08908)
T1 sequence (P08908 whole entry): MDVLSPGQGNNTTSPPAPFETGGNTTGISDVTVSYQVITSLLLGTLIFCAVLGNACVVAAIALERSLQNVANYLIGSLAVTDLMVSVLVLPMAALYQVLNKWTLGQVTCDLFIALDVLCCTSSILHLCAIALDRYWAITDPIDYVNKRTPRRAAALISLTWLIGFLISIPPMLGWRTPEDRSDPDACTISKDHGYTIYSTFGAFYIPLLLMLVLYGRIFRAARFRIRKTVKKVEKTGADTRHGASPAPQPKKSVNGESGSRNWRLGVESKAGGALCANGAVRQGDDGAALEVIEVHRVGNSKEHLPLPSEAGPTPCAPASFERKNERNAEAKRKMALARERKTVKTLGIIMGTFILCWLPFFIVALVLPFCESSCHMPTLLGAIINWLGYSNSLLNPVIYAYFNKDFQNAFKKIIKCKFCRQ

in vitro [2] = conditions: rat, liver microsomes
Description: Half life in rat liver microsomes at 1 uM after 20 mins

in vitro [3] = conditions: human, liver microsomes
Description: Half life in human liver microsomes at 1 uM after 20 mins

[4] = target: T1, 5-hydroxytryptamine receptor 1A; assay: biochemical
Description: (§3) Displacement of [3H]8-OH-DPAT from human 5HT1A receptor expressed in CHO cells

[5] = Clearance in Sprague-Dawley rat at 1 mg/kg, iv administered as single dose by LC/MS/MS analysis; format: ADME, organism-based; parameters: dose 1 mg/kg, route intravenous; conditions: in vivo
[6] = Volume of distribution at steady state in Sprague-Dawley rat at 1 mg/kg, iv administered as single dose by LC/MS/MS analysis; format: ADME, organism-based; parameters: dose 1 mg/kg, route intravenous; conditions: in vivo, read-out: Vdss
[7] = Cmax in Sprague-Dawley rat at 3 mg/kg, po administered as single dose by LC/MS/MS analysis; format: ADME, organism-based; parameters: dose 3 mg/kg, route oral; conditions: in vivo
[8] = Tmax in Sprague-Dawley rat at 3 mg/kg, po administered as single dose by LC/MS/MS analysis; format: ADME, organism-based; parameters: dose 3 mg/kg, route oral; conditions: in vivo
[9] = Half life in Sprague-Dawley rat at 3 mg/kg, po administered as single dose by LC/MS/MS analysis; format: ADME, organism-based; parameters: dose 3 mg/kg, route oral; conditions: in vivo
[10] = (§1) AUC in Sprague-Dawley rat at 3 mg/kg, po administered as single dose by LC/MS/MS analysis; format: ADME, organism-based, Plasma; parameters: dose 3 mg/kg, route oral; conditions: Sprague-Dawley, plasma
[11] = (§2) Oral bioavailability in Sprague-Dawley rat at 3 mg/kg administered as single dose by LC/MS/MS analysis; format: ADME, organism-based; conditions: Sprague-Dawley, in vivo
[12] = Ratio of drug level in brain to plasma in Sprague-Dawley rat at 3 mg/kg, po administered as single dose; format: ADME, organism-based; parameters: dose 3 mg/kg, route oral; conditions: read-out: BPR
Rattus norvegicus [13] = assay: Effect on serotonin release in Sprague-Dawley rat cortex at 10 mg/kg, po after 40 mins microdialysis assay; format: functional, organism-based; parameters: dose 10 mg/kg
Rattus norvegicus [14] = assay: Inhibition of 8-OH-DPAT-induced decrease in extracellular serotonin level Sprague-Dawley rat cortex at 10 mg/kg, po administered 30 mins before 8-OH-DPAT challenge; format: functional, organism-based; parameters: dose 10 mg/kg
Rattus norvegicus [15] = assay: Cognitive enhancing effect in po dosed Long-Evans rat assessed as reversal of 48 hrs delay-induced cognitive deficit at 0.1 mg/kg, po measured after 1 hr by novel object recognition test in presence of 0.5 mg/kg acetylcholinesterase inhibitor donepazil; format: functional, organism-based
Rattus norvegicus [16] = assay: Cognitive enhancing effect in Long-Evans rat assessed as decrease in mean escape latency at 3 to 10 mg/kg, po by atlantis water maze test; format: functional, organism-based
Rattus norvegicus [17] = assay: Cognitive enhancing effect in Long-Evans rat assessed as increase in dwell time within trigger zone during acquisition training at 3 mg/kg, po by atlantis water maze test; format: functional, organism-based; parameters: dose 3 mg/kg
Rattus norvegicus [18] = assay: Cognitive enhancing effect in Long-Evans rat assessed as increase in dwell time within trigger zone during acquisition training at 10 mg/kg, po by atlantis water maze test; format: functional, organism-based; parameters: dose 10 mg/kg
Rattus norvegicus [19] = assay: Cognitive enhancing effect in Long-Evans rat assessed as effect on swim speed during acquisition training at 3 to 10 mg/kg, po by atlantis water maze test; format: functional, organism-based
Mus musculus = assay: Cognitive enhancing effect in po dosed transgenic 2576 mouse overexpressing human APP K670N/M671L double mutant assessed as minimal effective dose for enhancement of contextual memory measured after 1 hr by contextual fear conditioning assay; format: functional; conditions: read-out: MED
Rattus norvegicus [20] = assay: Increase in fluoxetine-induced increase in serotonin level in Sprague-Dawley rat frontal cortex at 10 mg/kg, po administered 30 mins before fluoxetine challenge measured after 20 mins by microdialysis assay relative to basal level; format: functional
Rattus norvegicus [21] = assay: Effect on obsessive compulsive behavior in Sprague-Dawley rat assessed as inhibition of polydipsia stimulated by food intake of a schedule of every 2 minutes for 2 hrs at 5.6 mg/kg, ip after 30 mins; format: functional, organism-based; parameters: dose 5.6 mg/kg
Rattus norvegicus [22] = assay: Effect on obsessive compulsive behavior in Sprague-Dawley rat assessed as inhibition of polydipsia stimulated by food intake of a schedule of every 2 minutes for 2 hrs at 10 mg/kg, po after 30 mins; format: functional, organism-based; parameters: dose 10 mg/kg
Rattus norvegicus [23] = assay: Effect on obsessive compulsive behavior in po dosed Sprague-Dawley rat assessed as enhancement of fluoxetine-induced inhibition of polydipsia stimulated by food intake of a schedule of every 2 minutes for 2 hrs administered 30 mins before fluoxetine challenge measured after 30 mins; format: functional, organism-based
Rattus norvegicus [24] = assay: Enhancement of fluoxetine-induced inhibition of polydipsia stimulated by food intake of a schedule of every 2 minutes for 2 hrs in Sprague-Dawley rat assessed as minimal effective dose administered 30 mins before fluoxetine challenge measured after 30 mins; format: functional; conditions: read-out: MED
Rattus norvegicus [25] = assay: Antidepressant activity in Sprague-Dawley rat assessed as inhibition of olfactory bulbectomy-induced hyperlocomotor activity at 5.6 mg/kg, ip QD fro 7 days measured after 14 days post-surgery; format: functional, organism-based; parameters: dose 5.6 mg/kg
Rattus norvegicus [26] = assay: Enhancement of fluoxetine-induced inhibition of olfactory bulbectomy-mediated hyperlocomotor activity in Sprague-Dawley rat at 10 mg/kg, po coadministered with fluoxetine QD for 7 days measured after 14 days post-surgery; format: functional, organism-based; parameters: dose 10 mg/kg
Rattus norvegicus [27] = assay: Induction of sexual dysfunction in Sprague-Dawley rat assessed as decrease in noncontact penile erection at 10 mg/kg, ip QD for 14 days measured after day 14; format: organism-based; parameters: dose 10 mg/kg, route intraperitoneal; scale not given: the % may be the effect or the level left; conditions: in vivo, 336 h
Rattus norvegicus [28] = assay: Inhibition of fluoxetine-induced decrease in noncontact penile erection in Sprague-Dawley rat at 10 mg/kg, po coadministered with fluoxetine QD for 14 days measured after day 14; format: functional, organism-based; parameters: dose 10 mg/kg
Rattus norvegicus [29] = assay: Inhibition of fluoxetine-induced decrease in noncontact penile erection in Sprague-Dawley rat at 10 mg/kg, po coadministered with fluoxetine; format: functional, organism-based; parameters: dose 10 mg/kg
Rattus norvegicus [30] = assay: Effect of noncontact penile erection in Sprague-Dawley rat at 10 mg/kg, po QD for 14 days measured after day 14; format: functional, organism-based; parameters: dose 10 mg/kg
Rattus norvegicus [31] = assay: Effect of noncontact penile erection in Sprague-Dawley rat at 10 mg/kg, po; format: functional, organism-based; parameters: dose 10 mg/kg
Rattus norvegicus [32] = assay: as §1; format: ADME, organism-based, Plasma; parameters: dose 3 mg/kg, route oral; conditions: in vivo
Rattus norvegicus [33] = assay: as §2; format: ADME, organism-based; conditions: in vivo
Rattus norvegicus [34] = assay: Increase in acetylcholine level in Sprague-Dawley rat dorsal hippocampus at 10 mg/kg, po after 40 to 200 mins microdialysis assay; format: functional, organism-based; parameters: dose 10 mg/kg
Rattus norvegicus [35] = assay: Cognitive enhancing effect in po dosed Long-Evans rat assessed as minimal effective dose for reversal of 48 hrs delay-induced cognitive deficit measured after 1 hr by novel object recognition test; format: functional; conditions: read-out: MED
Rattus norvegicus [36] = assay: In vivo receptor occupancy of 5HT1A receptor Long-Evans rat frontal cortex at 0.1 to 10 mg/kg, po by [3H]WAY100635 displacement assay; format: functional; conditions: dose mg/kg 0.1-10
Rattus norvegicus [37] = assay: In vivo receptor occupancy of 5HT1A receptor Long-Evans rat […] hippocampus at 0.1 to 10 mg/kg, po by [3H]WAY100635 displacement assay; format: functional; conditions: dose mg/kg 0.1-10
Rattus norvegicus [38] = assay: Cognitive enhancing effect in po dosed Long-Evans rat assessed as minimal effective dose for reversal of MK-801-induced memory deficit administered 30 mins prior to MK801 challenge measured after 1 hr by novel object recognition test; format: functional; conditions: read-out: MED
Rattus norvegicus [39] = assay: Cognitive enhancing effect in po dosed Long-Evans rat assessed as minimal effective dose for reversal of scopolamine-induced memory deficit administered 30 mins prior to MK801 challenge measured after 1 hr by novel object recognition test; format: functional; conditions: read-out: MED
[40] = target: T1, 5-hydroxytryptamine receptor 1A; conditions: cho
Description: as §3

IC50 [1]: 331 nM
half-life at 20 min, 1 µM (in vitro [2]): 3 min
half-life at 20 min, 1 µM (in vitro [3]): 3 min
Ki [4]: 276 nM
Compound: COc1cc(N2CCN(C3CCN(c4c(F)ccc5cccnc45)CC3)CC2)c2ncccc2c1

IC50 [1]: 20 nM
half-life at 20 min, 1 µM (in vitro [2]): < 1 min
half-life at 20 min, 1 µM (in vitro [3]): 5 min
Ki [4]: 0.47 nM
Compound: COc1cc(N2CCN(C3CCN(c4ccc(F)c5cc(F)cnc45)CC3)CC2)c2ncccc2c1

IC50 [1]: 5.9 nM
half-life at 20 min, 1 µM (in vitro [2]): 2 min
half-life at 20 min, 1 µM (in vitro [3]): 2 min
Ki [4]: 0.46 nM
Compound: COc1cc(N2CCN(C3CCN(c4cccc5cc(C)cnc45)CC3)CC2)c2ncccc2c1

IC50 [1]: 4.8 nM
half-life at 20 min, 1 µM (in vitro [2]): 4 min
half-life at 20 min, 1 µM (in vitro [3]): < 1 min
Ki [4]: 0.63 nM
Compound: COc1cc(N2CCN(C3CCN(c4cccc5c(C)cc(C)nc45)CC3)CC2)c2ncccc2c1

IC50 [1]: 30 nM
half-life at 20 min, 1 µM (in vitro [2]): 4 min
half-life at 20 min, 1 µM (in vitro [3]): 10 min
Compound: COc1cc(N2CCN(C3CCN(c4cccc5cc(C(F)(F)F)cnc45)CC3)CC2)c2ncccc2c1

clearance [5]: 9 mL/min/kg
Vd [6]: 2.5 L/kg
Cmax [7]: 417 ng/mL
Tmax [8]: 120 min
half-life [9]: 288 min
AUC [10]: 3760 ng·h/mL
bioavailability [11]: 60%
Kp [12]: 0.2
half-life at 20 min, 1 µM (in vitro [2]): 12 min
half-life at 20 min, 1 µM (in vitro [3]): 15 min
Compound: COc1cc(N2CCN(C3CCN(c4ccc(F)c5c(OC)cc(C(F)(F)F)nc45)CC3)CC2)c2ncccc2c1
Activity (Rattus norvegicus [13]): inactive
Activity (Rattus norvegicus [14]): Active

Compound: COc1cc(N2CCN(C3CCN(c4ccc(F)c5cccnc45)CC3)CC2)c2ncccc2c1
Activity (Rattus norvegicus [15]): Active
Activity (Rattus norvegicus [16]): Active
Activity (Rattus norvegicus [17]): inactive
Activity (Rattus norvegicus [18]): Active
Activity (Rattus norvegicus [19]): inactive
minimal effective dose (Mus musculus): 0.3 mg/kg
Activity (Rattus norvegicus [20]): 120%
Activity (Rattus norvegicus [21]): inactive
Activity (Rattus norvegicus [22]): inactive
Activity (Rattus norvegicus [23]): Dose-dependent effect
minimal effective dose (Rattus norvegicus [24]): 3 mg/kg
Activity (Rattus norvegicus [25]): inactive
Activity (Rattus norvegicus [26]): Active
Activity (Rattus norvegicus [27]): 54%
Activity (Rattus norvegicus [28]): Active
Activity (Rattus norvegicus [29]): Active
Activity (Rattus norvegicus [30]): inactive
Activity (Rattus norvegicus [31]): inactive
Vd [6]: 2.6 L/kg
Cmax [7]: 247 ng/mL
Tmax [8]: 48 min
half-life [9]: 66 min
AUC (Rattus norvegicus [32]): 472 ng·h/mL
F (Rattus norvegicus [33]): 33%
Kp [12]: 1.3
Activity (Rattus norvegicus [13]): inactive
Activity (Rattus norvegicus [14]): Active
Activity (Rattus norvegicus [34]): Active
minimal effective dose (Rattus norvegicus [35]): 0.3 mg/kg
Activity (Rattus norvegicus [36]): 20%
Activity (Rattus norvegicus [37]): 20%
minimal effective dose (Rattus norvegicus [38]): 1 mg/kg
minimal effective dose (Rattus norvegicus [39]): 0.3 mg/kg
IC50 [1]: 2.7 nM
Ki [40]: 0.4 nM
half-life at 20 min, 1 µM (in vitro [2]): 2 min
half-life at 20 min, 1 µM (in vitro [3]): 6 min

IC50 [1]: 1.4 nM
half-life at 20 min, 1 µM (in vitro [2]): 2 min
half-life at 20 min, 1 µM (in vitro [3]): 2 min
Ki [4]: 0.61 nM
Compound: COc1cc(N2CCN(C3CCN(c4cccc5c(C)ccnc45)CC3)CC2)c2ncccc2c1

IC50 [1]: 47 nM
half-life at 20 min, 1 µM (in vitro [2]): < 1 min
half-life at 20 min, 1 µM (in vitro [3]): 3 min
Ki [4]: 0.54 nM
Compound: COc1cc(N2CCN(C3CCN(c4cccc5ccc(C)nc45)CC3)CC2)c2ncccc2c1
